These results are taken from patent US11492335B2, “Aryl or heteroaryl triazolone derivatives or salts thereof, or pharmaceutical compositions comprising the same” (YUHAN CORPORATION, priority 2018, dated 2022).

Holding throughout (type): biochemical
The target in assay [1] is T1, recombinant human MAO-B (monoamine oxidase-B) (Homo sapiens, UniProt P27338).
T1 construct: purchased Sigma-Aldrich
T1 sequence (P27338 1-520): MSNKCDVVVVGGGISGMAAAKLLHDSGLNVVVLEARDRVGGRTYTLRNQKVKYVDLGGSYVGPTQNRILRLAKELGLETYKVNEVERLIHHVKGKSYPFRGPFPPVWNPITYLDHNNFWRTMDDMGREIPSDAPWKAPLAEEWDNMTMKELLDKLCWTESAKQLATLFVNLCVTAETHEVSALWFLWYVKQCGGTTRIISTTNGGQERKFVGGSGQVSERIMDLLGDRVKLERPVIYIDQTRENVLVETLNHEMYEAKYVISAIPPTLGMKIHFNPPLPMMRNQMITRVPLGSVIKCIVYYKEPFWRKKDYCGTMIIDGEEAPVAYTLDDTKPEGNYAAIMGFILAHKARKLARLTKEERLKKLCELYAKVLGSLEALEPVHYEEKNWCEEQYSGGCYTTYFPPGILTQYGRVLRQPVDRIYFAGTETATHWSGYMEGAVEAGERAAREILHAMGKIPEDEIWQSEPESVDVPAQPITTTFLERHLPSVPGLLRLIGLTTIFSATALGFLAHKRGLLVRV
The experiment in a line: Activity on recombinant human MAO-B, Amplex Red method, 1 mM benzylamine substrate. The note with it: 1 mM benzylamine, read-out: Inhibitory Activity (IC50, nM) MAO-B. An outline of the steps:
(§1)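 8-point, 1:3 dose-response, four-parameter logistic IC50 from reduction in fluorescence rate versus DMSO control. HRP/Amplex Red detection of H2O2 (ex 544, em 590 nm) after 30 min, 37 °C compound–enzyme preincubation in pH 7.4 phosphate buffer. MAO-A substrate: 0.5 mM tyramine; MAO-B: 1 mM benzylamine.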

In assay [2] the target is T2, recombinant human DAO (diamine oxidase) (Homo sapiens, UniProt P19801).
T2 construct: purchased R&D systems
T2 sequence (P19801 20-751): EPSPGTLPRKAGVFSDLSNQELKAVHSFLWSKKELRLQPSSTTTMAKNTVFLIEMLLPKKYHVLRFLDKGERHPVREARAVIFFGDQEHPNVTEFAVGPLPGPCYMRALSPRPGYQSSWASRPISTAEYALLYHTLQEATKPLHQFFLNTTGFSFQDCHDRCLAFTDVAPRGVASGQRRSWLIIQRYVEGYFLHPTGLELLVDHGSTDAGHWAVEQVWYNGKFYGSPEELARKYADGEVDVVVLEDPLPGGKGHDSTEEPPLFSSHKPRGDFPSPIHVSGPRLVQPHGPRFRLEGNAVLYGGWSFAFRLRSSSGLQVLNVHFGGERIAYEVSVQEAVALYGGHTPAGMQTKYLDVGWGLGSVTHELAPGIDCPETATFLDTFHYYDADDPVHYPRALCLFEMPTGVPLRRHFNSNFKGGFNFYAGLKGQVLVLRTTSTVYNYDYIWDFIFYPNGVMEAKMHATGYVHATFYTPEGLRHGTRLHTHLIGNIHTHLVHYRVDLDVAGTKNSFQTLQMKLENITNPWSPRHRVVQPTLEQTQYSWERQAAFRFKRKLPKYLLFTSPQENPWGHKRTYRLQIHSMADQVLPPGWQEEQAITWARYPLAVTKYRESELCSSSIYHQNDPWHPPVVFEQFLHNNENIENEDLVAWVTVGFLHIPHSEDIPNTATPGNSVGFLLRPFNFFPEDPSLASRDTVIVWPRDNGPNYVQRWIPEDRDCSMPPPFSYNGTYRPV
As to the kind of experiment: Activity on recombinant human DAO, Amplex Red method, 1 mM putrescine substrate. The note with it: recombinant human DAO, 1 mM putrescine; * = between 10 and 100 nM, ** = between 300 and 1000 nM; read-out: Inhibitory Activity (IC50, nM) DAO. An outline of the steps: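 Inhibition of recombinant human DAO (diamine oxidase, R&D systems) was assessed with the Amplex Red Hydrogen Peroxide Assay Kit. Hydrogen peroxide produced from 1 mM putrescine was detected through an HRP-coupled reaction that converts Amplex Red into fluorescent resorufin, read at 544 nm excitation and 590 nm emission. IC50 values came from four-parameter logistic fits in GraphPad Prism.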

For assay [3], the target named is T3, recombinant human VAP-1 (Homo sapiens, UniProt Q16853).
T3 construct: purchased R&D systems
T3 sequence (Q16853 1-763): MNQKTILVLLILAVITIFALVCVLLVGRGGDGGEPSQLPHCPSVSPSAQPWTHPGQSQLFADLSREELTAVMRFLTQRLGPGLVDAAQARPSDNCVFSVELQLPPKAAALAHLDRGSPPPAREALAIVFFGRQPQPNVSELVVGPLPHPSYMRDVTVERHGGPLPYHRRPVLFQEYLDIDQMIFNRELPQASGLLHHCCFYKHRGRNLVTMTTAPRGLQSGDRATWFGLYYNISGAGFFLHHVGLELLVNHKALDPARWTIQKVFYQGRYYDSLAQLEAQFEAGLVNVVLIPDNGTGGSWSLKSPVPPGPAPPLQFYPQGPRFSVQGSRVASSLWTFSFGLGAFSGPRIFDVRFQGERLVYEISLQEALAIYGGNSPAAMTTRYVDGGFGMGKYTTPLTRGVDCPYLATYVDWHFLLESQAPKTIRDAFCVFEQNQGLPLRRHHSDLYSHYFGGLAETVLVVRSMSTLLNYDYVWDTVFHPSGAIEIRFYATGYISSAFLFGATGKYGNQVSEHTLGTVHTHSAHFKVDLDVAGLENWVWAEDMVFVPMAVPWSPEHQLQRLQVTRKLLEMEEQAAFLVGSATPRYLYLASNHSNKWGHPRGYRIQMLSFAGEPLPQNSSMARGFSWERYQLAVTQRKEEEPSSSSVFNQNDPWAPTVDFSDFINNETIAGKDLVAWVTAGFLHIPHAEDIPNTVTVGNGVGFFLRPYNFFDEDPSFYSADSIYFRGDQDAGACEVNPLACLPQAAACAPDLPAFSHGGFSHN
The experiment in a line: Activity on recombinant human VAP-1, Amplex Red HRP-coupled hydrogen peroxide assay, benzylamine substrate. The note with it: recombinant human VAP-1, benzylamine substrate, 30 min preincubation at 37° C.; read-out: Inhibitory Activity (IC50, nM) human VAP-1. An outline of the steps: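 Compounds were preincubated with purified enzyme in 50 mM sodium phosphate pH 7.4 at 37 °C for 30 min, then 200 uM Amplex Red, 1 mM benzylamine and 1 U/mL HRP were added. Resorufin fluorescence (ex 544/em 590 nm) was followed over 1-2 h; IC50 came from 4-parameter fits of signal-rate inhibition.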

The target of assay [4] is T4, recombinant human MAO-A (monoamine oxidase-A) (Homo sapiens, UniProt P21397).
T4 construct: purchased Sigma-Aldrich
T4 sequence (P21397 1-527): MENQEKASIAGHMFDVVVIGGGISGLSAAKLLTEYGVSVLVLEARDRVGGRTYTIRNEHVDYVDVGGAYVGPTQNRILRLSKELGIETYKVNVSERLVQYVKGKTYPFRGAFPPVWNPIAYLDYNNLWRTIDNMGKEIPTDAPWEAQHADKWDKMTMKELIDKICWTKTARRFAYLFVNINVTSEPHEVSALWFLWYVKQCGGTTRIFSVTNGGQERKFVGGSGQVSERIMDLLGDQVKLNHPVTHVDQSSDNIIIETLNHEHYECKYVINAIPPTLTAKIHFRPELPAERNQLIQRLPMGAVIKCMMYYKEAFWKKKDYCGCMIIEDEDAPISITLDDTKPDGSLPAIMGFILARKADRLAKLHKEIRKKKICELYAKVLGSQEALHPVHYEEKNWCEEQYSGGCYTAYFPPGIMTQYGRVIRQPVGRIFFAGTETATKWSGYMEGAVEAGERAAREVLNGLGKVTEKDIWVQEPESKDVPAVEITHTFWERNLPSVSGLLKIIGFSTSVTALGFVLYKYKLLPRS
The experiment in a line: Activity on recombinant human MAO-A, Amplex Red method, 0.5 mM tyramine substrate. The note with it: 0.5 mM tyramine, read-out: Inhibitory Activity (IC50, nM) MAO-A. An outline of the steps: as §1

Counter-ions that a name gives are not always drawn.

Broadly, the IC50 is the concentration needed to halve the response being measured. With `NC/C(=C/F)Cn1ncn(-c2cccc(-c3ccc(-c4nnc[nH]4)cc3)c2)c1=O` [Example 58, 2-[(2Z)-2-(aminomethyl)-3-fluoroprop-2-en-1-yl]-4-[4′-(4H-1,2,4-triazol-3-yl)biphenyl-3-yl]-2,4-dihydro-3H-1,2,4-triazol-3-one], the IC50 was over 10000 nM in assay [1], under 100 nM in assay [2], 0.63 nM in assay [3] and over 100000 nM in assay [4].
Turning to `NC/C(=C\F)Cn1ncn(-c2cccc(-c3ccc(-c4nnc[nH]4)cc3)c2)c1=O` [Example 59, 2-[(2E)-2-(aminomethyl)-3-fluoroprop-2-en-1-yl]-4-[4′-(4H-1,2,4-triazol-3-yl)biphenyl-3-yl]-2,4-dihydro-3H-1,2,4-triazol-3-one], the IC50 is over 10000 nM in assay [1], under 100 nM in assay [2], 0.62 nM in assay [3] and over 100000 nM in assay [4].
As to `NC/C(=C\F)Cn1ncn(-c2cccc(-c3ccc(-c4ncon4)cc3)c2)c1=O` [Example 61, 2-[(2E)-2-(aminomethyl)-3-fluoroprop-2-en-1-yl]-4-[4′-(1,2,4-oxadiazol-3-yl)biphenyl-3-yl]-2,4-dihydro-3H-1,2,4-triazol-3-one], the IC50 in assay [1] is 998 nM; in assay [2], under 100 nM; in assay [3] it was 0.65 nM; in assay [4] it was 62000 nM.
Regarding `NC/C(=C\F)Cn1ncn(-c2cccc(-c3cccc(-c4ncon4)c3)c2)c1=O` [Example 62, 2-[(2E)-2-(aminomethyl)-3-fluoroprop-2-en-1-yl]-4-[3′-(1,2,4-oxadiazol-3-yl)biphenyl-3-yl]-2,4-dihydro-3H-1,2,4-triazol-3-one], the IC50 was 117 nM in assay [1], under 100 nM in assay [2], 0.53 nM in assay [3] and over 100000 nM in assay [4].
Consider `NC/C(=C\F)Cn1ncn(-c2cccc(-c3ccc(-c4noc(C5CC5)n4)cc3)c2)c1=O` [Example 63, 2-[(2E)-2-(aminomethyl)-3-fluoroprop-2-en-1-yl]-4-[4′-(5-cyclopropyl-1,2,4-oxadiazol-3-yl)biphenyl-3-yl]-2,4-dihydro-3H-1,2,4-triazol-3-one hydrochloride], for which the IC50 was over 10000 nM in assay [1], under 30 nM in assay [2], 1 nM in assay [3] and over 100000 nM in assay [4].
For the molecule `CC(C)c1nc(-c2ccc(-c3cccc(-n4cnn(C/C(=C/F)CN)c4=O)c3)cc2)no1` [Example 64, 2-[(2E)-2-(aminomethyl)-3-fluoroprop-2-en-1-yl]-4-{4′-[5-(propan-2-yl)-1,2,4-oxadiazol-3-yl]biphenyl-3-yl}-2,4-dihydro-3H-1,2,4-triazol-3-one hydrochloride], the IC50 in assay [1] was over 10000 nM; in assay [2], under 30 nM; in assay [3], 3.2 nM; in assay [4] it was 6030 nM.
With `CC(C)c1nc(-c2cccc(-c3cccc(-n4cnn(C/C(=C/F)CN)c4=O)c3)c2)no1` [Example 65, 2-[(2E)-2-(aminomethyl)-3-fluoroprop-2-en-1-yl]-4-{3′-[5-(propan-2-yl)-1,2,4-oxadiazol-3-yl]biphenyl-3-yl}-2,4-dihydro-3H-1,2,4-triazol-3-one hydrochloride], the IC50 is over 10000 nM in assay [1], under 30 nM in assay [2], 0.93 nM in assay [3] and over 100000 nM in assay [4].
For the molecule `CS(=O)(=O)c1ccc(-c2ccc(-c3cccc(-n4cnn(C/C(=C/F)CN)c4=O)c3)cc2)cc1` [Example 66, 2-[(2E)-2-(aminomethyl)-3-fluoroprop-2-en-1-yl]-4-[4″-(methylsulfonyl)-1,1′:4′,1″-terphenyl-3-yl]-2,4-dihydro-3H-1,2,4-triazol-3-one hydrochloride], the IC50 was over 10000 nM in assay [1], 3.9 nM in assay [2], 0.66 nM in assay [3] and over 100000 nM in assay [4].
For the molecule `CS(=O)(=O)c1ccc(-c2cccc(-c3cccc(-n4cnn(C/C(=C/F)CN)c4=O)c3)c2)cc1` [Example 67, 2-[(2E)-2-(aminomethyl)-3-fluoroprop-2-en-1-yl]-4-[4″-(methylsulfonyl)-1,1′:3′,1″-terphenyl-3-yl]-2,4-dihydro-3H-1,2,4-triazol-3-one], the IC50 in assay [1] is over 10000 nM; in assay [2] it was 11 nM; in assay [3], 0.77 nM; in assay [4] it was over 100000 nM.
On the same counts, the results for `CC(=O)Nc1ccc(-c2ccc(-c3cccc(-n4cnn(C/C(=C/F)CN)c4=O)c3)cc2)cc1` [Example 68, N-(3″-{1-[(2E)-2-(aminomethyl)-3-fluoroprop-2-en-1-yl]-5-oxo-1,5-dihydro-4H-1,2,4-triazol-4-yl}-1,1′:4′,1″-terphenyl-4-yl)acetamide hydrochloride] are over 10000 nM, 2.7 nM, 0.82 nM and 37800 nM.
